Source: patent publication US20130190237A1, “METHODS FOR CATEGORISING CANCER SUCH AS BREAST CANCER” (IMPERIAL INNOVATIONS LIMITED, priority 2010, published 2013)
Residues, ends and D or L forms follow the SMILES beside them. *: point of attachment. Cbz = O=C(OCc1ccccc1)*

Columns and labels:
LMTK3 kinase domain = target: T1, LMTK3 kinase domain (Homo sapiens, UniProt Q96Q04); assay: LMTK3 inhibitor screening assay (CisBio KinEASE STK S1 kit, ratiometric fluorescent read-out); type: biochemical; conditions: for Average % Inhibition / Average pIC50: 10 nM LMTK3, 1 μM S1 peptide, ATP 10 μM; for Average pIC50: 120 mins at 37° C., N=5
T1 construct: GST (N); made in house; host or cells: insect cells
T1 sequence (Q96Q04 133-415): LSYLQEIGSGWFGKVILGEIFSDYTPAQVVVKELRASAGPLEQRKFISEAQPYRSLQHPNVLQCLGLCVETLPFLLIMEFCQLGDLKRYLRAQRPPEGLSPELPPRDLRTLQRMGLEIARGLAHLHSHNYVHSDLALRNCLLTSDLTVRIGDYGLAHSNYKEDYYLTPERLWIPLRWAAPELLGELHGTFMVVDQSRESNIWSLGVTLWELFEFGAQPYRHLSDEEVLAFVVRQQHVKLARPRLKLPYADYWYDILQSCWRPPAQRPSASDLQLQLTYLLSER
Experimental: This exemplary assay has been developed to find inhibitors of LMTK3. The LMTK3 kinase domain (amino acids 133-415 of the full length kinase sequence, with an N-terminal GST tag) was expressed in insect cells and isolated via the GST N-terminal epitope.
Kinase reactions are set up in the presence of 1% DMSO with ATP added at around KM (=10 μM). Kinase activity is monitored using the CisBio KinEASE STK S1 kit using a ratiometric fluorescent read-out at 665 and 620 nm. The assay uses 10 nM LMTK3, 1 μM S1 peptide, 10 mM MgCl2 in the manufacturer buffer with extension of reaction time to 120 mins at 37° C.
Screening was performed in 384 low volume black microtitre plates with a final volume of 20 μl. The reaction was stopped with the addition of EDTA and detection reagents and fluorescence read on Pherastar. Data was normalised to the high control as specified by no inhibition and the low controls, equating to no activity (absence of ATP). Inhibitor activity was determined using concentration response curves, and using a four parameter fit to identify pIC50 values. Assay robustness was calculated using Z prime.

[1] = tested on: Tamoxifen resistant cell lines (LCC9, MLET5, BT-474); assay: WST-1 cell proliferation assay in tamoxifen resistant cell lines; type: cell-based; conditions: 20 nM siRNA, Tamoxifen 100 nM
Experimental: Tamoxifen resistant cell lines (LCC9, MLET5, BT-474) were transfected with 20 nM of control siRNA or LMTK3 siRNA in the presence or absence of Tamoxifen (100 nM). Cells were subjected to the WST-1 cell proliferation assay, on the day of transfection (day 0) and then consecutive 48 h intervals. Absorbance was measured at 460 nm. Results represent the mean of three experiments per cell line ±SE.
FIG. 28 Effects of LMTK3 silencing in tamoxifen-resistant cell lines. (a) BT-474, (b) MLET5 and, (c) LCC9 cells were transfected with LMTK3 siRNA in the presence or absence of tamoxifen (100 nM). Comparisons are shown amongst: i) siControl-transfected and tamoxifen treated cells (*), ii) siControl- and siLMTK3-transfected cells ($) and iii) tamoxifen treated and siLMTK3-transfected cells (p<0.05—Student's t test). Western blotting of AIB1 and p-ERα S118 protein expression levels are shown.
The colorimetric Rapid Cell Proliferation kit (Calbiochem, UK) was used. The assay is based on the incubation of cells with the tatrazolium salt WST-1, which is cleaved by mitochondrial dehydrogenases, functional only in viable cells. […] The following day, cells were incubated with the WST-1 for 30 min at 37° C., according to manufacturer's instructions, and the absorbance read with the microplate reader at 460 nm was considered to be Day 0. […] Readings were repeated consecutively in 48 h intervals. […]

[2] = tested on: ERα protein in MCF7 cells; assay: Western blotting of ERα protein levels; type: cell-based, human; conditions: for ERα protein levels under LMTK3 silencing with co-treatment: MCF7, LMTK3 siRNA plus compound
Experimental: (A) MCF7 cells (1×10^6) were plated in 10 cm^2 plates in phenol red-free DMEM containing 10% DSS. The following day, cells were transfected with 20 nM CT siRNA or LMTK3 siRNA for 72 h and then treated or not (ET-OH) with E2 (10 nM) for 24 h. Cells were harvested, lysed and equal protein amounts were subjected to Western Blotting analysis using the indicated antibodies. β-actin was used as a control for sample loading. (B) Quantitative analysis of ERα and LMTK3 protein levels is given as fold of control. […] (C) MCF7 cells (5×10^4) were plated in 24-well plates and transfected with 20 nM CT siRNA or LMTK3 siRNA for 48 h. Gene expression of ERα was measured by qRT-PCR.
(§1) Whole cell lysates were prepared using NP40 lysis buffer (50 mM Tris-HCl, pH 8.0, 150 mM NaCl, 10% (v/v) glycerol, 1% NP40, 5 mM dithiothreitol (DTT), 1 mM EDTA, 1 mM EGTA, 50 μM leupeptin and 30 μg/ml aprotinin). These extracts were then clarified by centrifugation at 15000 rpm for 15 min at 4° C. for western blotting. The bicinchoninic acid (BCA) protein assay (Pierce) was used to determine the protein concentration of the lysates. […] The membranes were then blocked in TBS containing 0.1% (v/v) Tween20 and 5% (w/v) non-fat milk for 1 h and subsequently probed overnight with different antibodies following extensive washing with TBS/Tween and incubation with HRP-conjugated goat anti-rabbit IgG or goat anti-mouse IgG (1:1000 dilution) for 45 mins. Enhanced chemiluminescence (ECL) detection then allowed detection of the immunocomplexes. The intensity of the bands were quantified using Image J software (NIH, Bethesda, Md.).
as §1, with “45 min.” for “45 mins.”, “the immuno-complexes.” for “the immunocomplexes.”, “bands was” for “bands were”

LMTK3 gene expression = LMTK3 gene expression after E2 or tamoxifen; type: cell-based
Experimental: Total RNA was isolated using the RNeasy kit (Qiagen). Reverse transcription was performed using high capacity cDNA reverse transcription kit (Applied Biosystems). RT-qPCR analysis was performed on a 7900HT Thermocycler (Applied Biosystems) using TaqMan mastermix and primers for TFF1, PGR, GREB1, FOXO3, FOXM1, LMTK1, LMTK2, LMTK3, MCL1 and GAPDH cDNAs, purchased from Applied Biosystems.

CCCCCCOC(=O)[C@]1(O)C[C@@H]2O[C@@]1(C)n1c3ccccc3c3c4c(c5c6ccccc6n2c5c31)C(=O)NC4 [KT5720]
Average % Inhibition (LMTK3 kinase domain): 98.65% | Average pIC50 (LMTK3 kinase domain): 9.93

CC/C(=C(\c1ccccc1)c1ccc(OCCN(C)C)cc1)c1ccccc1 [Tamoxifen]
effect on growth of tamoxifen-resistant cell lines [1]: slightly affected basal cell growth | increase of ERα protein levels ([2]; MCF7, Tam 100 nM 24 h): ~50% | LMTK3 expression (LMTK3 gene expression): up-regulated

CN[C@@H]1C[C@H]2O[C@@](C)([C@@H]1OC)n1c3ccccc3c3c4c(c5c6ccccc6n2c5c31)C(=O)NC4 [Staurosporine]
IC50 (LMTK3 kinase domain): 0.0024 nM | Average % Inhibition (LMTK3 kinase domain): 108.86%

CC(C)C[C@@H](C=O)NC(=O)[C@H](CC(C)C)NC(=O)[C@H](CC(C)C)NC(=O)OCc1ccccc1 [MG132] (Cbz-Leu-Leu-Leu-aldehyde)
ERα protein levels under LMTK3 silencing with co-treatment [2]: partly rescued ERα degradation

COc1ccc2c(c1)c(C1=C(c3c[nH]c4ccccc34)C(=O)NC1=O)cn2CCCN(C)C [Go 6983]
ERα protein levels under LMTK3 silencing with co-treatment [2]: partly rescues the LMTK3 siRNA-induced down-regulation of ERα

COC(=O)[C@@]1(O)C[C@H]2O[C@]1(C)n1c3ccccc3c3c4c(c5c6ccccc6n2c5c31)C(=O)NC4 [K-252a]
IC50 (LMTK3 kinase domain): 79.4 nM | Average % Inhibition (LMTK3 kinase domain): 98.91%

CCCCCCCCCCCCCC(=O)O[C@@H]1[C@@H](C)[C@@]2(O)[C@@H](C=C(CO)C[C@]3(O)C(=O)C(C)=C[C@@H]23)[C@@H]2C(C)(C)[C@]12OC(C)=O [PMA]
ERα protein levels under LMTK3 silencing with co-treatment [2]: further degrades ERα

C[C@]12CC[C@@H]3c4ccc(O)cc4CC[C@H]3[C@@H]1CC[C@@H]2O [E2, Estradiol]
decrease of ERα protein levels ([2]; MCF7, E2 10 nM 24 h or 20 nM siRNA 72 h): ~40%

CN(C)CCCn1cc(C2=C(c3c[nH]c4ccccc34)C(=O)NC2=O)c2ccccc21 [GF109203X]
Average % Inhibition (LMTK3 kinase domain): 107.89% | Average pIC50 (LMTK3 kinase domain): 9.88
